Key:
Assay type in all cases: in vivo
[1] = test system: Aster Leafhopper [Macrosteles fascifrens (Stal)]; test: Aster leafhopper on dipped oat seedlings (LH), 48 hours; conditions: percent in solution, adults/nymphs
Description: The compounds in Tables 1 and 2 above were tested for insecticidal activity using the following testing procedures. LC50 values, based on the results of these tests and calculated according to dosage-mortality curves, are expressed in Table 3.
Aster Leafhopper [Macrosteles fascifrens (Stal)]
Oat seedlings (Avena sp) were grown in a commercial potting soil in cups. When the plants were approximately 10 cm tall they were thinned to three plants per cup and dipped for 2-3 seconds in 50-50 acetone-water solutions of the test compounds. When the plants had dried, a clear plastic tube was placed over them and the bottom end pressed into the cup. Ten aster leafhopper adults/nymphs were then placed in each tube and the tops of the tubes covered with white organdy cloth. Mortality counts were made after 48 hours. Test concentrations ranged from 0.05% down to that at which 50% mortality occurred. The LC50 values are expressed below in Table 3 under the heading "LH" in terms of the percent of the test compound in the solution.

[2] = test system: Black Bean Aphid [Aphis fabae (Scop.)]; test: Black bean aphid spray test on nasturtium (BBA), 48 hours; conditions: percent of test compound in sprayed solution
How it was run: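 LC50, given as percent test compound in the sprayed liquid, was calculated from dosage-mortality curves using concentrations from 0.05% downward. Sprays in 50:50 acetone-water went to runoff on ~5 cm nasturtiums carrying 25-50 aphids of mixed ages, one day after infestation. Deaths were counted 48 h later under greenhouse conditions.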

[3] = test system: Tobacco Budworm [Heliothis virescens (Fabricius)] eggs; test: Tobacco budworm eggs (TBW-E); conditions: percent in solution; 2-day old eggs
How it was run: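 2-day eggs on paper towel, acetone dip, 0.1% and below; petri dish with larval diet, 78° F. Mortality read after control hatch and larval feeding. LC50 = % compound in solution, from dose-mortality curve.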

[4] = test system: Housefly [Musca domestica]; test: Housefly contact mortality in dishes (HF), 48 hours; conditions: μg of test compound per 25 female flies
How it was run: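 Residual contact test: acetone dilution, 0.01% peanut oil spreader, solvent evaporated; 25 ♀ flies (1-2 d old) per cage; sugar-water plug; 48 h mortality read. LC50 in μg/25 female flies, from dose-mortality curves; top dose 100 μg/25 flies.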

[5] = test system: Cabbage Looper [Trichoplusia ni (Hubner)]; test: Cabbage looper leaf dip (CL), 3-5 days; conditions: percent in solution, second-instar larvae
How it was run: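 LC50 values, given as percent test compound in solution, were calculated from dosage-mortality curves. Squash cotyledons were immersed 2-3 s in acetone-water (50-50) dilutions starting at 0.1%, dried on a screen, then infested with five second-instar larvae. Mortality was read 3-5 days on.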

[6] = test system: Maize weevil [Sitophilus zeamais (Motschulsky)]; test: Maize weevil on dipped corn seeds (MW), 48 hours; conditions: percent in solution, adult weevils
How it was run: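 LC50, given as percent of compound in dipping solution, comes from dosage-mortality curves over concentrations descending from 0.01%. Four corn seeds soaked 2-3 s in 50:50 acetone:water solution were dried and held with 10 adult weevils, about 25° C, mortality read after 48 h.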

SMILES	LC50 LH [1] [%]	LC50 BBA [2] [%]	LC50 TBW E (eggs) [3] [%]	LC50 HF [4] [µg]	LC50 CL [5] [%]	LC50 MW [6] [%]
CC(C)C(=Nc1ccc(F)c(Cl)c1)OCc1cccc(OCc2ccc(F)cc2)c1 [Compound 490]	> 0.05	> 0.05	> 0.1	> 100	0.0045	> 0.01
CC(C)(F)C(=Nc1ccc(F)c(Cl)c1)OCc1cc(Oc2ccc(F)cc2)ccc1F [Compound 316]	> 0.05	> 0.05	> 0.1	100	0.0015	> 0.01
CC(C)C(=Nc1ccc(C(C)(C)C)cc1)OCc1cccc(Oc2ccccc2)c1 [Compound 153]	0.0005	0.003	0.1	> 100	0.004	> 0.01
CC(C)C(=Nc1ccc(F)c(Cl)c1)OCc1cccc(Oc2ccccn2)c1 [Compound 549]	> 0.05	> 0.05	> 0.1	< 100	> 0.1	> 0.01
CC(C)C(=Nc1cccc(C(C)(C)C)c1)OCc1cccc(Oc2ccc(F)cc2)c1 [Compound 350]	> 0.05	> 0.05	> 0.1	> 100	0.0045	> 0.01
CC(C)C(=Nc1cccc(I)c1)OCc1cccc(Oc2ccc(F)cc2)c1 [Compound 255]	0.0005	0.003	0.075	16	0.00017	> 0.01
CSc1ccc(Oc2cccc(COC(=Nc3ccc(F)c(Cl)c3)C(C)C)c2)cc1 [Compound 256]	> 0.05	0.03	0.1	> 100	0.007	> 0.01
CC1(C)C(C(=Nc2ccc(F)c(Cl)c2)OCc2cccc(Oc3ccccc3)c2)C1(C)C [Compound 124]	> 0.05	> 0.05	> 0.1	17	0.01	> 0.01
COC(=O)c1ccc(N=C(OCc2cccc(Oc3ccccc3)c2)C(C)C)cc1 [Compound 151]	> 0.05	0.006	> 0.1	38	0.009	> 0.01
CC(=Nc1ccc(F)c(F)c1)OCc1coc(Cc2ccccc2)c1 [Compound 526]	> 0.05	> 0.05	> 0.1	8.3	> 0.1	> 0.01
CCC(=Nc1ccc(Cl)cc1)OCc1cccc(Oc2ccccc2)c1 [Compound 11]	> 0.05	0.01	> 0.1	6	0.025	> 0.01
CC(C)C(=Nc1ccc(Br)c(C(F)(F)F)c1)OCc1ccc(F)c(Oc2ccc(F)cc2)c1 [Compound 364]	< 0.05	0.001	0.025	< 100	0.00045	> 0.01
Cc1ccc(N=C(OCc2ccc(F)c(Oc3ccc(F)cc3)c2)C(C)C)cc1Cl [Compound 357]	< 0.05	0.0003	> 0.1	< 100	> 0.1	0.01
CSc1cccc(N=C(OCc2ccc(F)c(Oc3ccccc3)c2)C(C)C)c1 [Compound 362]	> 0.05	0.005	> 0.1	< 100	> 0.1	> 0.01
CC(C)C(=Nc1ccc(F)c(Cl)c1)OCc1cccc(Nc2ccc(F)cc2)c1 [Compound 512]	> 0.05	> 0.05	> 0.1	35	0.003	> 0.01
CC(C)C(=Nc1ccc2c(c1)OCO2)OCc1cccc(Oc2ccc(Cl)cn2)c1 [Compound 532]	> 0.05	> 0.05	> 0.1	> 100	< 0.1	> 0.01
CC(C)C(=Nc1ccc(F)cc1)OCCc1cccc(Oc2ccccc2)c1 [Compound 456]	> 0.05	0.01	> 0.05	> 100	0.017	> 0.01
C#CCc1c(F)c(F)c(COC(=Nc2cccc(C(F)(F)F)c2)C(C)C)c(F)c1F [Compound 546]	< 0.05	0.001	> 0.1	< 100	0.0001	0.0032
CC(C)C(=Nc1ccc(-c2ccccc2)cc1)OCc1cccc(Oc2ccccc2)c1 [Compound 186]	> 0.05	> 0.05	> 0.1	> 100	0.008	> 0.01
CC(C)C(=Nc1ccc2c(c1)OCO2)OCc1cccc(Oc2ccc(C(C)(C)C)cc2)c1 [Compound 367]	> 0.05	> 0.05	> 0.1	> 100	< 0.1	> 0.01
CC(C)C(=Nc1ccccc1Cl)OCc1cccc(Oc2ccccc2)c1 [Compound 17]	> 0.05	0.03	> 0.1	75	0.03	> 0.01
CC(C)C(=Nc1ccc(F)c([N+](=O)[O-])c1)OCc1cccc(Oc2ccccc2)c1 [Compound 293]	> 0.05	> 0.05	> 0.1	19	0.0045	> 0.01
COc1ccc(N=C(OCc2cccc(Oc3ccccc3)c2)C(C)C)cc1 [Compound 160]	0.05	0.003	0.09	7	0.005	> 0.01
COc1ccc(N=C(OCc2ccc(F)c(Oc3ccc(F)cc3)c2)C(C)C)cc1OC [Compound 363]	> 0.05	0.005	> 0.1	< 100	> 0.1	> 0.01
CC(C)C(=Nc1cccc(C(F)(F)F)c1)OCC#CCOc1ccccc1 [Compound 548]	> 0.05	> 0.05	> 0.1	> 100	< 0.1	> 0.01
CSc1ccc(N=C(OCc2cccc(Oc3ccccc3)c2)C(C)C)cc1 [Compound 142]	> 0.05	0.001	0.1	15	0.005	> 0.01
c1ccc(Oc2cccc(COC(=Nc3ccc4c(c3)OCO4)C3CC3)c2)cc1 [Compound 177]	> 0.05	0.01	> 0.1	13	0.002	0.01
C#CC(OC(=Nc1ccc(F)c(Cl)c1)C(C)C)c1cccc(Oc2ccccc2)c1 (stereo not drawn) [Compound 533, N-(3-chloro-4-fluorophenyl)-O-[1-(3-phenoxyphenyl)-2-propyn-1-yl]isobutyrimidate]	> 0.05	> 0.05	> 0.1	60	> 0.1	> 0.01
